The values below come from patent publication US8703701B2 (Indiana University Research and Technology Corporation, priority 2009, dated 2014).

In general, EC50 refers to the concentration needed to bring the measured effect to its halfway point.

SMILES strings stand for the structures. Starred links: 1 amine or outer side, 2 acyl side, 3 side chain; linkers in the order of their positions; H or OH if unused. Non-standard residues stand in square brackets, D forms with d. Residues, ends and D or L forms follow the SMILES beside them. Groups on a side chain read outwards from the residue. *: point of attachment. γGlu = O=C(O)[C@H](CCC(=O)[*:2])N[*:1]; Stearoyl = CCCCCCCCCCCCCCCCCC(=O)*; Palmitoyl = CCCCCCCCCCCCCCCC(=O)*; Aib = CC(C)(N)C(=O)O

One test has as its target T1, glucagon receptor (Homo sapiens, UniProt P47871).
T1 construct: expressed in transfected cells; host or cells: HEK293
Description: cAMP induction, firefly luciferase reporter assay, glucagon receptor. Format: cell-based. The following applies: for Activity at Glucagon Receptor % Relative Activity: compared to native glucagon. As for the experimental part:
(§1) The ability of each peptide to induce cAMP was measured in a firefly luciferase-based reporter assay.
(§2) At the end of the incubation, 100 μL of LucLite luminescence substrate reagent (Perkin Elmer, Wellesley, Mass.) were added to each well. The plate was shaken briefly, incubated 10 min in the dark and light output was measured on MicroBeta-1450 liquid scintillation counter (Perkin-Elmer, Wellesley, Mass.).
For orientation: Reporter assays use an easily measured gene product as a stand-in for the process of interest.

The target in a further test is T2, GLP-1 receptor (Homo sapiens, UniProt P43220).
T2 construct: expressed in transfected cells; host or cells: HEK293
Put plainly: cAMP induction, firefly luciferase reporter assay, GLP-1 receptor. In kind it is cell-based. Particulars: for Activity at GLP-1 Receptor % Relative Activity: compared to native GLP-1. As for the experimental part: as §1, §2

Setting [1] is: Activity at GLP-1 Receptor EC50 [pM], Table 3A.

T1 sequence (P47871 26-477): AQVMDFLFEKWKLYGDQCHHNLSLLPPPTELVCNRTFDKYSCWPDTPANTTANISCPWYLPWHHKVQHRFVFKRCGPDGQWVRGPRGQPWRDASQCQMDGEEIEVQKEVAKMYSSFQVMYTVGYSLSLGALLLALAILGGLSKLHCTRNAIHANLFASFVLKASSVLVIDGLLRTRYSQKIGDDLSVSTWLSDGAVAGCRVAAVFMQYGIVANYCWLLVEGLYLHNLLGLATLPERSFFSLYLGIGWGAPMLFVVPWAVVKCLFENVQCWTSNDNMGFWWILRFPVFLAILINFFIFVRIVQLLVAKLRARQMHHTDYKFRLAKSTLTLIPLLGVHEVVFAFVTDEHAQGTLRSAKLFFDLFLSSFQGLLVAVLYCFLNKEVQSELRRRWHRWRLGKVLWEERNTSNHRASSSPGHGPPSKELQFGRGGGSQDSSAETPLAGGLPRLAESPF
T2 sequence (P43220 24-463): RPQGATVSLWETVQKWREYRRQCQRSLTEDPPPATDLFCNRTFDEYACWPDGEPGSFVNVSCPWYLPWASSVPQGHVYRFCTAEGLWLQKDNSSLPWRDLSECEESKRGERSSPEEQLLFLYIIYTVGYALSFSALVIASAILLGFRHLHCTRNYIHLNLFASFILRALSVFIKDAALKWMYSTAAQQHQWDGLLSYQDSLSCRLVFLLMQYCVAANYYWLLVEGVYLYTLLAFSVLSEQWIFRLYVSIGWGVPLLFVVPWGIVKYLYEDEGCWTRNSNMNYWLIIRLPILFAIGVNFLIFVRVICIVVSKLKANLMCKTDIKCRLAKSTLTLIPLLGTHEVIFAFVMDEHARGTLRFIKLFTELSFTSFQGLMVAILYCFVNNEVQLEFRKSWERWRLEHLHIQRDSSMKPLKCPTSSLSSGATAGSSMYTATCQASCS

With `CCCCCCCCCCCCCCCC(=O)N[C@@H](CCC(=O)NCCCC[C@H](NC(=O)[C@H](CC(=O)O)NC(=O)[C@H](CO)NC(=O)[C@@H](NC(=O)[C@H](Cc1ccccc1)NC(=O)[C@@H](NC(=O)CNC(=O)[C@H](CCC(N)=O)NC(=O)[C@@H](CO)NC(=O)[C@@H](N)Cc1c[nH]cn1)[C@@H](C)O)[C@@H](C)O)C(=O)N[C@@H](CO)C(=O)N[C@@H](CCCCN)C(=O)N[C@@H](Cc1ccc(O)cc1)C(=O)N[C@@H](CC(C)C)C(=O)N[C@@H](CC(=O)O)C(=O)N[C@@H](CCC(=O)O)C(=O)N[C@@H](CCC(N)=O)C(=O)N[C@@H](C)C(=O)N[C@@H](C)C(=O)N[C@@H](CCCCN)C(=O)N[C@@H](CCC(=O)O)C(=O)N[C@@H](Cc1ccccc1)C(=O)N[C@H](C(=O)N[C@@H](CS)C(=O)N[C@@H](Cc1c[nH]c2ccccc12)C(=O)N[C@@H](CC(C)C)C(=O)N[C@@H](CC(C)C)C(=O)N[C@@H](CC(=O)O)C(=O)N[C@H](C(N)=O)[C@@H](C)O)[C@@H](C)CC)C(=O)O` [compound 53], the “Activity at Glucagon Receptor % Relative Activity” value on glucagon receptor (Table 5) is recorded as 411%. Moreover, on GLP-1 receptor (Table 5), the “Activity at GLP-1 Receptor % Relative Activity” value stood at 708%.

As to `CCCCCCCCCCCCCCCC(=O)N[C@@H](CCC(=O)NCCCC[C@H](NC(=O)[C@H](CC(=O)O)NC(=O)[C@H](CO)NC(=O)[C@@H](NC(=O)[C@H](Cc1ccccc1)NC(=O)[C@@H](NC(=O)CNC(=O)[C@H](CCC(N)=O)NC(=O)[C@@H](CO)NC(=O)[C@@H](N)Cc1c[nH]cn1)[C@@H](C)O)[C@@H](C)O)C(=O)N[C@@H](CO)C(=O)N[C@@H](CCCCN)C(=O)N[C@@H](Cc1ccc(O)cc1)C(=O)N[C@@H](CC(C)C)C(=O)N[C@@H](CC(=O)O)C(=O)N[C@@H](CCC(=O)O)C(=O)N[C@@H](CCC(N)=O)C(=O)N[C@@H](C)C(=O)N[C@@H](C)C(=O)N[C@@H](CCCCN)C(=O)N[C@@H](CCC(=O)O)C(=O)N[C@@H](Cc1ccccc1)C(=O)N[C@H](C(=O)N[C@@H](CS)C(=O)N[C@@H](Cc1c[nH]c2ccccc12)C(=O)N[C@@H](CC(C)C)C(=O)N[C@@H](CC(C)C)C(=O)N[C@@H](CC(=O)O)C(=O)N[C@H](C(=O)NCC(=O)NCC(=O)O)[C@@H](C)O)[C@@H](C)CC)C(=O)O` [compound 56], the “Activity at Glucagon Receptor % Relative Activity” value at glucagon receptor (Table 5) is 272%. Also, on GLP-1 receptor (Activity at GLP-1 Receptor EC50 [nM], Table 5), the EC50 was found to be 0.068 nM. For the same molecule, the “Activity at GLP-1 Receptor % Relative Activity” value on GLP-1 receptor (Table 5) stood at 125%.

As to `CCCCCCCCCCCCCCCC(=O)N[C@@H](CCC(=O)NCCCC[C@H](NC(=O)[C@H](CC(=O)O)NC(=O)[C@H](CO)NC(=O)[C@@H](NC(=O)[C@H](Cc1ccccc1)NC(=O)[C@@H](NC(=O)CNC(=O)[C@H](CCC(N)=O)NC(=O)[C@@H](CO)NC(=O)[C@@H](N)Cc1c[nH]cn1)[C@@H](C)O)[C@@H](C)O)C(=O)N[C@@H](CO)C(=O)N[C@@H](CCCCN)C(=O)N[C@@H](Cc1ccc(O)cc1)C(=O)N[C@@H](CC(C)C)C(=O)N[C@@H](CC(=O)O)C(=O)N[C@@H](CCC(=O)O)C(=O)N[C@@H](CCC(N)=O)C(=O)N[C@@H](C)C(=O)N[C@@H](C)C(=O)N[C@@H](CCCCN)C(=O)N[C@@H](CCC(=O)O)C(=O)N[C@@H](Cc1ccccc1)C(=O)N[C@H](C(=O)N[C@@H](CS)C(=O)N[C@@H](Cc1c[nH]c2ccccc12)C(=O)N[C@@H](CC(C)C)C(=O)N[C@@H](CC(C)C)C(=O)N[C@@H](CC(=O)O)C(=O)N[C@H](C(=O)N[C@@H](CCC(=O)O)C(N)=O)[C@@H](C)O)[C@@H](C)CC)C(=O)O` [compound 83], at glucagon receptor (Table 3C), the “Activity at Glucagon Receptor % Relative Activity” value is listed as 61%. The “Activity at GLP-1 Receptor % Relative Activity” value on GLP-1 receptor (Table 3C) is listed as 288%.

Turning to `CCCCCCCCCCCCCCCC(=O)N[C@@H](CCC(=O)N[C@@H](CCC(=O)NCCCC[C@H](NC(=O)[C@H](CC(=O)O)NC(=O)[C@H](CO)NC(=O)[C@@H](NC(=O)[C@H](Cc1ccccc1)NC(=O)[C@@H](NC(=O)CNC(=O)[C@H](CCC(N)=O)NC(=O)C(C)(C)NC(=O)[C@@H](N)Cc1c[nH]cn1)[C@@H](C)O)[C@@H](C)O)C(=O)N[C@@H](CO)C(=O)N[C@@H](CCCCN)C(=O)N[C@@H](Cc1ccc(O)cc1)C(=O)N[C@@H](CC(C)C)C(=O)N[C@@H](CC(=O)O)C(=O)NC(C)(C)C(=O)N[C@@H](CCCNC(=N)N)C(=O)N[C@@H](C)C(=O)N[C@@H](C)C(=O)N[C@@H](CCC(N)=O)C(=O)N[C@@H](CC(=O)O)C(=O)N[C@@H](Cc1ccccc1)C(=O)N[C@H](C(=O)N[C@@H](CCC(N)=O)C(=O)N[C@@H](Cc1c[nH]c2ccccc12)C(=O)N[C@@H](CC(C)C)C(=O)N[C@@H](CC(C)C)C(=O)N[C@@H](CC(=O)O)C(=O)N[C@H](C(N)=O)[C@@H](C)O)C(C)C)C(=O)O)C(=O)O` [compound 49], on glucagon receptor (Table 3A), the “Activity at Glucagon Receptor % Relative Activity” value is on record as 511%. At GLP-1 receptor (setting [1]), this molecule returned an EC50 of 0.006 nM. Also, the “Activity at GLP-1 Receptor % Relative Activity” value at GLP-1 receptor (Table 3A) came to 375%.

`CCCCCCCCCCCCCCCC(=O)N[C@@H](CCC(=O)N[C@@H](CCC(=O)NCCCC[C@H](NC(=O)[C@H](CC(=O)O)NC(=O)[C@H](CO)NC(=O)[C@@H](NC(=O)[C@H](Cc1ccccc1)NC(=O)[C@@H](NC(=O)CNC(=O)[C@H](CCC(N)=O)NC(=O)C(C)(C)NC(=O)[C@@H](N)Cc1c[nH]cn1)[C@@H](C)O)[C@@H](C)O)C(=O)N[C@@H](CO)C(=O)N[C@@H](CCCCN)C(=O)N[C@@H](Cc1ccc(O)cc1)C(=O)N[C@@H](CC(C)C)C(=O)N[C@@H](CC(=O)O)C(=O)NC(C)(C)C(=O)N[C@@H](CCCNC(=N)N)C(=O)N[C@@H](C)C(=O)N[C@@H](C)C(=O)N[C@@H](CCC(N)=O)C(=O)N[C@@H](CC(=O)O)C(=O)N[C@@H](Cc1ccccc1)C(=O)N[C@H](C(=O)N[C@@H](CCC(N)=O)C(=O)N[C@@H](Cc1c[nH]c2ccccc12)C(=O)N[C@@H](CC(C)C)C(=O)N[C@@H](CCSC)C(=O)N[C@@H](CC(=O)O)C(=O)N[C@H](C(N)=O)[C@@H](C)O)C(C)C)C(=O)O)C(=O)O` [compound 42] (H-H[Aib]QGTFTSDK([γGlu-γGlu-Palmitoyl])SKYLD[Aib]RAAQDFVQWLMDT-NH2; N-terminus assumed): the “Activity at Glucagon Receptor % Relative Activity” value on glucagon receptor (Table 3A) came to 863%. In addition, the response at GLP-1 receptor (setting [1]) was half-maximal at 0.005 nM (EC50). Also, on GLP-1 receptor (Table 3A), the “Activity at GLP-1 Receptor % Relative Activity” value is 500%.

At glucagon receptor (Activity at Glucagon Receptor EC50 [pM], Table 3B), `CCCCCCCCCCCCCCCCCC(=O)N[C@@H](CCC(=O)N[C@@H](CCC(=O)NCCCC[C@H](NC(=O)[C@H](CC(=O)O)NC(=O)[C@H](CO)NC(=O)[C@@H](NC(=O)[C@H](Cc1ccccc1)NC(=O)[C@@H](NC(=O)CNC(=O)[C@H](CCC(N)=O)NC(=O)C(C)(C)NC(=O)[C@@H](N)Cc1c[nH]cn1)[C@@H](C)O)[C@@H](C)O)C(=O)N[C@@H](CO)C(=O)N[C@@H](CCCCN)C(=O)N[C@@H](Cc1ccc(O)cc1)C(=O)N[C@@H](CC(C)C)C(=O)N[C@@H](CC(=O)O)C(=O)NC(C)(C)C(=O)N[C@@H](CCCNC(=N)N)C(=O)N[C@@H](C)C(=O)N[C@@H](C)C(=O)N[C@@H](CCC(N)=O)C(=O)N[C@@H](CC(=O)O)C(=O)N[C@@H](Cc1ccccc1)C(=O)N[C@H](C(=O)N[C@@H](CCC(N)=O)C(=O)N[C@@H](Cc1c[nH]c2ccccc12)C(=O)N[C@@H](CC(C)C)C(=O)N[C@@H](CCSC)C(=O)N[C@@H](CC(=O)O)C(=O)N[C@H](C(N)=O)[C@@H](C)O)C(C)C)C(=O)O)C(=O)O` [compound 71] (H-H[Aib]QGTFTSDK([γGlu-γGlu-Stearoyl])SKYLD[Aib]RAAQDFVQWLMDT-NH2; N-terminus assumed) registered an EC50 of 4 pM. At glucagon receptor (Table 3B), the “Activity at Glucagon Receptor % Relative Activity” value came out at 975%. The “Activity at GLP-1 Receptor % Relative Activity” value at GLP-1 receptor (Table 3B) came out at 1222%.
